Values of other authors, collected in patent EP4778540A1, “ANTIBODY-DRUG CONJUGATE CONTAINING HETEROCYCLIC COMPOUND HAVING ACTIVITY OF INDUCING DECOMPOSITION OF G12D MUTANT KRAS PROTEIN” (Astellas Pharma Inc., priority 2023, dated 2025).
Counter-ions that a name gives are not always drawn.

Biological target: T1, mutant RAS G12D protein (Homo sapiens, UniProt P01116, G12D)
T1 construct: endogenous in cells; host or cells: AsPC-1 (human pancreatic cancer line)
Conditions: human G12D mutant KRAS-positive pancreatic cancer line AsPC-1, cited from earlier work; for DC50: DC50 of D10 calculated from a molecular weight in terms of 4 hydrochloride

T1 sequence (P01116 1-188 isoform P01116-2 G12D): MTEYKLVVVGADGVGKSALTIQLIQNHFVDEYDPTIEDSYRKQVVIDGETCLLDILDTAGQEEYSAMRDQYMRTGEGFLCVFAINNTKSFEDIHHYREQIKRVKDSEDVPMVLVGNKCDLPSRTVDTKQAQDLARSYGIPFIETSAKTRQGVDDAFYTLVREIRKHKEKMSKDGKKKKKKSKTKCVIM

| SMILES | DC50 | Dmax |
| --- | --- | --- |
| COC(C)COc1nc(N(C)C2CCNC2)c2cc(C3CC3)c(-c3c(C)c(F)cc4[nH]ncc34)c(OCc3ccc(-c4cn(C(C(=O)N5CC(O)CC5C(=O)NC(CO)c5ccc(-c6scnc6C)cc5)C(C)C)nn4)cc3)c2n1 [D7, (4R)-1-[(2S)-2-{4-[4-({[(7M)-6-cyclopropyl-7-(6-fluoro-5-methyl-1H-indazol-4-yl)-2-[(2S)-2-methoxypropoxy]-4-{methyl[(3S)-pyrrolidin-3-yl]amino}quinazolin-8-yl]oxy}methyl)phenyl]-1H-1,2,3-triazol-1-yl}-3-methylbutanoyl]-4-hydroxy-N-{(1R)-2-hydroxy-1-[4-(4-methyl-1,3-thiazol-5-yl)phenyl]ethyl}-L-prolinamide] | 0.01 µM | – |
| Cc1c(F)cc2[nH]ncc2c1-c1c(C2CC2)cc2c(N3CC4CC3CN4)nc(OC3CCOCC3)nc2c1OCc1ccc(C(=O)N2CCN(Cc3ccc4c(c3)n(C)c(=O)n4C3CCC(=O)NC3=O)CC2C)cc1 [D9, 3-(5-{[(3S)-4-{4-[({(7M)-6-cyclopropyl-4-[(1S,4S)-2,5-diazabicyclo[2.2.1]heptan-2-yl]-7-(6-fluoro-5-methyl-1H-indazol-4-yl)-2-[(oxan-4-yl)oxy]quinazolin-8-yl}oxy)methyl]benzoyl} -3-methylpiperazin-1-yl]methyl}-3-methyl-2-oxo-2,3-dihydro-1H-benzimidazol-1-yl)piperidine-2,6-dione] | 0.013 µM | 86% |
| Cc1c(F)cc2[nH]ncc2c1-c1c(C2CC2)cc2c(N3C[C@@H]4C[C@H]3CN4)nc(OC3CCOCC3)nc2c1OCc1ccc(C(=O)N2CCN(Cc3ccc4c(N5CCC(=O)NC5=O)nn(C)c4c3)C[C@@H]2C)cc1 [D10, 1-(6-{[(3S)-4-{4-[({(7M)-6-cyclopropyl-4-[(1S,4S)-2,5-diazabicyclo[2.2.1]heptan-2-yl]-7-(6-fluoro-5-methyl-1H-indazol-4-yl)-2-[(oxan-4-yl)oxy]quinazolin-8-yl}oxy)methyl]benzoyl}-3-methylpiperazin-1-yl]methyl}-1-methyl-1H-indazol-3-yl)-1,3-diazinane-2,4-dione n-hydrochloride] | 0.071 µM | 86% |
| CO[C@@H](C)COc1nc(N2C[C@@H]3C[C@H]2CN3)c2cc(C3CC3)c(-c3c(C)c(F)cc4[nH]ncc34)c(OCc3ccc(C(=O)N4CCN(Cc5ccc6c(c5)n(C)c(=O)n6C5CCC(=O)NC5=O)C[C@@H]4C)cc3)c2n1 (stereo partly drawn) [D11, 3-(5-{[(3S)-4-{4-[({(7M)-6-cyclopropyl-4-[(1S,4S)-2,5-diazabicyclo[2.2.1]heptan-2-yl]-7-(6-fluoro-5-methyl-1H-indazol-4-yl)-2-[(2S)-2-methoxypropoxy]quinazolin-8-yl}oxy)methyl]benzoyl}-3-methylpiperazin-1-yl]methyl}-3-methyl-2-oxo-2,3-dihydro-1H-benzimidazol-1-yl)piperidine-2,6-dione] | 0.008 µM | 86% |
